Measured values as given in PubChem BioAssay AID1259407 (Chemical Carcinogenesis Research Information System (CCRIS), 2018).
The source made the active and inactive calls. The rule behind the calls is not given here.

Test system: CCRIS mutagenicity, Ames/micronucleus/aberration tests
Test: CCRIS mutagenicity studies
[1] = Test System: AMES SALMONELLA TYPHIMURIUM, Strain/Indicator: TA97, Metabolic Activation: HAMSTER, LIVER, S-9, AROCLOR 1254 (10%), Method: PREINCUBATION
[2] = Test System: AMES SALMONELLA TYPHIMURIUM, Strain/Indicator: TA97, Metabolic Activation: HAMSTER, LIVER, S-9, AROCLOR 1254 (30%), Method: PREINCUBATION
[3] = Test System: AMES SALMONELLA TYPHIMURIUM, Strain/Indicator: TA97, Metabolic Activation: NONE, Method: PREINCUBATION
[4] = Test System: AMES SALMONELLA TYPHIMURIUM, Strain/Indicator: TA97, Metabolic Activation: RAT, LIVER, S-9, AROCLOR 1254 (10%), Method: PREINCUBATION
[5] = Test System: AMES SALMONELLA TYPHIMURIUM, Strain/Indicator: TA97, Metabolic Activation: RAT, LIVER, S-9, AROCLOR 1254 (30%), Method: PREINCUBATION
[6] = Test System: AMES SALMONELLA TYPHIMURIUM, Strain/Indicator: TA98, Metabolic Activation: HAMSTER, LIVER, S-9, AROCLOR 1254 (10%), Method: PREINCUBATION
[7] = Test System: AMES SALMONELLA TYPHIMURIUM, Strain/Indicator: TA98, Metabolic Activation: HAMSTER, LIVER, S-9, AROCLOR 1254 (30%), Method: PREINCUBATION
[8] = Test System: AMES SALMONELLA TYPHIMURIUM, Strain/Indicator: TA98, Metabolic Activation: NONE, Method: PREINCUBATION
[9] = Test System: AMES SALMONELLA TYPHIMURIUM, Strain/Indicator: TA98, Metabolic Activation: RAT, LIVER, S-9, AROCLOR 1254 (10%), Method: PREINCUBATION
[10] = Test System: AMES SALMONELLA TYPHIMURIUM, Strain/Indicator: TA98, Metabolic Activation: RAT, LIVER, S-9, AROCLOR 1254 (30%), Method: PREINCUBATION
[11] = Test System: AMES SALMONELLA TYPHIMURIUM, Strain/Indicator: TA100, Metabolic Activation: HAMSTER, LIVER, S-9, AROCLOR 1254 (10%), Method: PREINCUBATION
[12] = Test System: AMES SALMONELLA TYPHIMURIUM, Strain/Indicator: TA100, Metabolic Activation: HAMSTER, LIVER, S-9, AROCLOR 1254 (30%), Method: PREINCUBATION
[13] = Test System: AMES SALMONELLA TYPHIMURIUM, Strain/Indicator: TA100, Metabolic Activation: NONE, Method: PREINCUBATION
[14] = Test System: AMES SALMONELLA TYPHIMURIUM, Strain/Indicator: TA100, Metabolic Activation: RAT, LIVER, S-9, AROCLOR 1254 (10%), Method: PREINCUBATION
[15] = Test System: AMES SALMONELLA TYPHIMURIUM, Strain/Indicator: TA100, Metabolic Activation: RAT, LIVER, S-9, AROCLOR 1254 (30%), Method: PREINCUBATION
[16] = Test System: AMES SALMONELLA TYPHIMURIUM, Strain/Indicator: TA1535, Metabolic Activation: HAMSTER, LIVER, S-9, AROCLOR 1254 (10%), Method: PREINCUBATION
[17] = Test System: AMES SALMONELLA TYPHIMURIUM, Strain/Indicator: TA1535, Metabolic Activation: HAMSTER, LIVER, S-9, AROCLOR 1254 (30%), Method: PREINCUBATION
[18] = Test System: AMES SALMONELLA TYPHIMURIUM, Strain/Indicator: TA1535, Metabolic Activation: NONE, Method: PREINCUBATION
[19] = Test System: AMES SALMONELLA TYPHIMURIUM, Strain/Indicator: TA1535, Metabolic Activation: RAT, LIVER, S-9, AROCLOR 1254 (10%), Method: PREINCUBATION
[20] = Test System: AMES SALMONELLA TYPHIMURIUM, Strain/Indicator: TA1535, Metabolic Activation: RAT, LIVER, S-9, AROCLOR 1254 (30%), Method: PREINCUBATION
[21] = Test System: AMES SALMONELLA TYPHIMURIUM, Strain/Indicator: TA1537, Metabolic Activation: HAMSTER, LIVER, S-9, AROCLOR 1254 (10%), Method: PREINCUBATION
[22] = Test System: AMES SALMONELLA TYPHIMURIUM, Strain/Indicator: TA1537, Metabolic Activation: NONE, Method: PREINCUBATION
[23] = Test System: AMES SALMONELLA TYPHIMURIUM, Strain/Indicator: TA1537, Metabolic Activation: RAT, LIVER, S-9, AROCLOR 1254 (10%), Method: PREINCUBATION

Structure (SMILES) | mutagenic call [1] | mutagenic call [2] | mutagenic call [3] | mutagenic call [4] | mutagenic call [5] | mutagenic call [6] | mutagenic call [7] | mutagenic call [8] | mutagenic call [9] | mutagenic call [10] | mutagenic call [11] | mutagenic call [12] | mutagenic call [13] | mutagenic call [14] | mutagenic call [15] | mutagenic call [16] | mutagenic call [17] | mutagenic call [18] | mutagenic call [19] | mutagenic call [20] | also measured
OC[P+](CO)(CO)CO | inactive; negative | inactive; negative | inactive; negative | inactive; negative | inactive; negative | inactive; negative | inactive; negative | inactive; negative | inactive; negative | inactive; negative | inactive; negative | inactive; negative | inactive; negative | inactive; negative | inactive; negative | inactive; negative | inactive; negative | inactive; negative | inactive; negative | inactive; negative | mutagenic call (End Point: IN VITRO CHROMOSOMAL ABERRATIONS, Test System: CHO CELLS, Metabolic Activation: NONE): active; positive; mutagenic call (Test System: AMES SALMONELLA TYPHIMURIUM, Strain/Indicator: TA98, Metabolic Activation: HAMSTER, LIVER, S-9, AROCLOR 1254, Method: PREINCUBATION): inactive; negative; mutagenic call (Test System: AMES SALMONELLA TYPHIMURIUM, Strain/Indicator: TA98, Metabolic Activation: RAT, LIVER, S-9, AROCLOR 1254, Method: PREINCUBATION): inactive; negative; mutagenic call (Test System: AMES SALMONELLA TYPHIMURIUM, Strain/Indicator: TA100, Metabolic Activation: HAMSTER, LIVER, S-9, AROCLOR 1254, Method: PREINCUBATION): inactive; negative; mutagenic call (Test System: AMES SALMONELLA TYPHIMURIUM, Strain/Indicator: TA100, Metabolic Activation: RAT, LIVER, S-9, AROCLOR 1254, Method: PREINCUBATION): inactive; negative; mutagenic call (Test System: AMES SALMONELLA TYPHIMURIUM, Strain/Indicator: TA1535, Metabolic Activation: HAMSTER, LIVER, S-9, AROCLOR 1254, Method: PREINCUBATION): inactive; negative; mutagenic call (Test System: AMES SALMONELLA TYPHIMURIUM, Strain/Indicator: TA1535, Metabolic Activation: RAT, LIVER, S-9, AROCLOR 1254, Method: PREINCUBATION): inactive; negative; mutagenic call [21]: inactive; negative; mutagenic call (Test System: AMES SALMONELLA TYPHIMURIUM, Strain/Indicator: TA1537, Metabolic Activation: HAMSTER, LIVER, S-9, AROCLOR 1254 (30%), Method: PREINCUBATION): inactive; negative; mutagenic call (Test System: AMES SALMONELLA TYPHIMURIUM, Strain/Indicator: TA1537, Metabolic Activation: HAMSTER, LIVER, S-9, AROCLOR 1254, Method: PREINCUBATION): inactive; negative; mutagenic call [22]: inactive; negative; mutagenic call [23]: inactive; negative; mutagenic call (Test System: AMES SALMONELLA TYPHIMURIUM, Strain/Indicator: TA1537, Metabolic Activation: RAT, LIVER, S-9, AROCLOR 1254 (30%), Method: PREINCUBATION): inactive; negative; mutagenic call (Test System: AMES SALMONELLA TYPHIMURIUM, Strain/Indicator: TA1537, Metabolic Activation: RAT, LIVER, S-9, AROCLOR 1254, Method: PREINCUBATION): inactive; negative; mutagenic call (Test System: MOUSE LYMPHOMA, Strain/Indicator: L5178Y (TK+/TK-), Metabolic Activation: NONE, Method: SUSPENSION/PLATE): active; positive
CC(=O)OCc1c2ccccc2c(C)c2ccccc12 |  |  |  |  |  |  |  |  |  |  |  |  |  |  |  |  |  |  |  |  | mutagenic call (Test System: AMES SALMONELLA TYPHIMURIUM, Strain/Indicator: TA98, Metabolic Activation: NONE, Method: STANDARD PLATE): active; positive; mutagenic call (Test System: AMES SALMONELLA TYPHIMURIUM, Strain/Indicator: TA100, Metabolic Activation: NONE, Method: STANDARD PLATE): active; positive
Oc1cc2c3c(cc4cccc5ccc1c3c54)-c1ccccc1-2 |  |  |  |  |  |  |  |  |  |  |  |  |  |  |  |  |  |  |  |  | mutagenic call (Test System: AMES SALMONELLA TYPHIMURIUM, Strain/Indicator: TA100, Metabolic Activation: RAT, LIVER, S-9, AROCLOR 1254, Method: STANDARD PLATE): inactive; negative
CCOCCOC(=O)/C=C/c1ccc(OC)cc1 |  |  |  |  |  | inactive; negative |  | inactive; negative | inactive; negative |  | inactive; negative |  | inactive; negative | inactive; negative |  | inactive; negative |  | inactive; negative | inactive; negative |  | mutagenic call [21]: inactive; negative; mutagenic call [22]: inactive; negative; mutagenic call [23]: inactive; negative
CCCCOCCCC | inactive; negative | inactive; negative | inactive; negative | inactive; negative | inactive; negative | inactive; negative | inactive; negative | inactive; negative | inactive; negative | inactive; negative | inactive; negative | inactive; negative | inactive; negative | inactive; negative | inactive; negative | inactive; negative | inactive; negative | inactive; negative | inactive; negative | inactive; negative | 
Nc1ccc2ccc3ccccc3c2c1 |  |  |  |  |  |  |  |  |  |  |  |  |  |  |  |  |  |  |  |  | mutagenic call (Test System: AMES SALMONELLA TYPHIMURIUM, Strain/Indicator: TA98, Metabolic Activation: RAT, LIVER, S-9, AROCLOR 1254 (2 OR 4%), Method: STANDARD PLATE): active; positive; mutagenic call (Test System: AMES SALMONELLA TYPHIMURIUM, Strain/Indicator: TA100, Metabolic Activation: RAT, LIVER, S-9, AROCLOR 1254 (2%), Method: STANDARD PLATE): active; positive; mutagenic call (Test System: AMES SALMONELLA TYPHIMURIUM, Strain/Indicator: TA1535, Metabolic Activation: RAT, LIVER, S-9, AROCLOR 1254 (2%), Method: STANDARD PLATE): active; positive; mutagenic call (Test System: AMES SALMONELLA TYPHIMURIUM, Strain/Indicator: TA1537, Metabolic Activation: RAT, LIVER, S-9, AROCLOR 1254 (2%), Method: STANDARD PLATE): active; positive
